Source: ChEMBL document CHEMBL5149982, “Development of Potent NEDD8-Activating Enzyme Inhibitors Bearing a Pyrimidotriazole Scaffold” (J Med Chem, 2021)
pIC50: −log10 of the molar value. Active and inactive are the calls of the source. The rule behind the calls is not given here.

Legend:
[1] = molecular target: T1, NEDD8 activating enzyme (Homo sapiens, UniProt Q8TBC4); experiment: Inhibition of NAE (unknown origin) mediated neddylation assessed as decrease in NEDD8-Ubcl2 adduct formation incubated for 2 hrs in presence of L-glutathione and ATP by HTRF assay; assay type: protein-complex assay
T1 sequence (Q8TBC4 whole entry): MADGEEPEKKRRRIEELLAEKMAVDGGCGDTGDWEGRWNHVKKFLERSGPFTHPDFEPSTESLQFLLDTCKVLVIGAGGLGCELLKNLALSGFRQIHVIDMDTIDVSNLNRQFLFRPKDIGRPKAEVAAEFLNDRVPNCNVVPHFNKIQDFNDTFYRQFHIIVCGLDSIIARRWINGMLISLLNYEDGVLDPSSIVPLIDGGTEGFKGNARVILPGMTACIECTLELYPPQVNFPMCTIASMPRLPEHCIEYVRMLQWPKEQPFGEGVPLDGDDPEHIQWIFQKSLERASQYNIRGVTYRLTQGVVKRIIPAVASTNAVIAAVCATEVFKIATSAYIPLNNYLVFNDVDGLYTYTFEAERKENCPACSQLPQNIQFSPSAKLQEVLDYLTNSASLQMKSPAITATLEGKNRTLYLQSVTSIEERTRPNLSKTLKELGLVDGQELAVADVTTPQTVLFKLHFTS
T1 sequence (Q13564 whole entry): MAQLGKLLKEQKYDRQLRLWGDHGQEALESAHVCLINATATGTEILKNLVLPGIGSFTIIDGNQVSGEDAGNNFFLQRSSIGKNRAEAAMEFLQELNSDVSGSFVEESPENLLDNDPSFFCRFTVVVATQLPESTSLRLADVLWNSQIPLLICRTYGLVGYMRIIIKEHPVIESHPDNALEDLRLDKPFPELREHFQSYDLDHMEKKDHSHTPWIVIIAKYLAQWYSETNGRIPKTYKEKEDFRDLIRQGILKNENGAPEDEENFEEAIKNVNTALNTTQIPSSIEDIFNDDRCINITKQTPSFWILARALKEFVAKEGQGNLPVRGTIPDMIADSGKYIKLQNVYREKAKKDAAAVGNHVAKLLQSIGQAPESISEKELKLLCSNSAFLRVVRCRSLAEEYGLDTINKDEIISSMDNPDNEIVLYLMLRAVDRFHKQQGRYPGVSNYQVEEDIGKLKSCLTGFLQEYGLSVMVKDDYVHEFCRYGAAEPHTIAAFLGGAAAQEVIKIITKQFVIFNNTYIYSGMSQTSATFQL

[2] = tested on: HCT-116; experiment: Antiproliferative activity against human HCT-116 cells assessed as cell growth inhibition by sulforhodamine B assay; assay type: functional, cell-based
[3] = molecular target: Voltage-gated inwardly rectifying potassium channel KCNH2 (Homo sapiens, UniProt Q12809); experiment: Inhibition of hERG channel; assay type: toxicity
[4] = Half life in Sprague-Dawley rat at 1 mg/kg, iv; assay type: ADME, organism-based; conditions: in vivo
[5] = AUClast in Sprague-Dawley rat at 1 mg/kg, iv; assay type: ADME, organism-based; design: time 0 - last, dose 1 mg/kg, route iv; conditions: in vivo
[6] = Observed AUCinfinity in Sprague-Dawley rat at 1 mg/kg, iv; assay type: ADME, organism-based; design: time infinity, dose 1 mg/kg, route iv; conditions: in vivo
[7] = Clearance in Sprague-Dawley rat at 1 mg/kg, iv; assay type: ADME, organism-based; conditions: in vivo
[8] = Observed MRTinfinity in Sprague-Dawley rat at 1 mg/kg, iv; assay type: ADME, organism-based; conditions: in vivo
[9] = Volume of distribution at steady state in Sprague-Dawley rat at 1 mg/kg, iv; assay type: ADME, organism-based; conditions: in vivo, read-out: Vdss
[10] = Inhibition of UAE (unknown origin) […] assessed as decrease in UbcH10-Ub adduct formation incubated for 2 hrs in presence of L-glutathione and ATP by HTRF assay; design: species or system Homo sapiens
[11] = molecular target: T2, NEDD8 activating enzyme (Homo sapiens) (UniProt Q8TBC4+Q13564); experiment: Inhibition of NAE in human HCT-116 cells mediated neddylation assessed as accumulation of CDT1 incubated for 24 hrs by Western blotting analysis; assay type: cell-based; conditions: dose <= 1.0 µM, DDE = dose-dependent effect
[12] = molecular target: T2, NEDD8 activating enzyme (Homo sapiens); experiment: Inhibition of NAE in human HCT-116 cells mediated neddylation assessed as accumulation of p27 incubated for 24 hrs by Western blotting analysis; assay type: cell-based; conditions: dose <= 1.0 µM, DDE = dose-dependent effect
[13] = molecular target: T2, NEDD8 activating enzyme (Homo sapiens); experiment: Inhibition of NAE in human HCT-116 cells mediated neddylation assessed as accumulation of p21 incubated for 24 hrs by Western blotting analysis; assay type: cell-based; conditions: dose <= 1.0 µM, DDE = dose-dependent effect
[14] = molecular target: T2, NEDD8 activating enzyme (Homo sapiens); experiment: Inhibition of NAE in human HCT-116 cells mediated neddylation assessed as accumulation of IkappaBalpha (Ser32/36) incubated for 24 hrs by Western blotting analysis; assay type: cell-based; conditions: dose <= 1.0 µM, DDE = dose-dependent effect
[15] = molecular target: T2, NEDD8 activating enzyme (Homo sapiens); experiment: Inhibition of NAE in human HCT-116 cells mediated neddylation assessed as increase in CHK phosphorylation incubated for 24 hrs by Western blotting analysis; assay type: cell-based
[16] = molecular target: T2, NEDD8 activating enzyme (Homo sapiens); experiment: Inhibition of NAE in human HCT-116 cells mediated neddylation assessed as accumulation of gamma-H2AX incubated for 24 hrs by Western blotting analysis; assay type: cell-based
[17] = molecular target: T2, NEDD8 activating enzyme (Homo sapiens); experiment: Inhibition of NAE in human HuTu80 cells mediated neddylation assessed as accumulation of CDT1 incubated for 24 hrs by Western blotting analysis; assay type: cell-based; conditions: dose <= 1.0 µM, DDE = dose-dependent effect
[18] = molecular target: T2, NEDD8 activating enzyme (Homo sapiens); experiment: Inhibition of NAE in human HuTu80 cells mediated neddylation assessed as accumulation of p27 incubated for 24 hrs by Western blotting analysis; assay type: cell-based; conditions: dose <= 1.0 µM, DDE = dose-dependent effect
[19] = molecular target: T2, NEDD8 activating enzyme (Homo sapiens); experiment: Inhibition of NAE in human HuTu80 cells mediated neddylation assessed as accumulation of p21 incubated for 24 hrs by Western blotting analysis; assay type: cell-based; conditions: dose <= 1.0 µM, DDE = dose-dependent effect
[20] = molecular target: T2, NEDD8 activating enzyme (Homo sapiens); experiment: Inhibition of NAE in human HuTu80 cells mediated neddylation assessed as accumulation of IkappaBalpha (Ser32/36) incubated for 24 hrs by Western blotting analysis; assay type: cell-based; conditions: dose <= 1.0 µM, DDE = dose-dependent effect
[21] = molecular target: T2, NEDD8 activating enzyme (Homo sapiens); experiment: Inhibition of NAE in human HuTu80 cells mediated neddylation assessed as accumulation of gamma-H2AX incubated for 24 hrs by Western blotting analysis; assay type: cell-based
[22] = molecular target: T2, NEDD8 activating enzyme (Homo sapiens); experiment: Inhibition of NAE in human HuTu80 cells mediated neddylation assessed as increase in CHK phosphorylation incubated for 24 hrs by Western blotting analysis; assay type: cell-based
[23] = tested on: MV4-11; experiment: Antiproliferative activity against human MV4-11 cells assessed as cell growth inhibition measured after 72 hrs by SRB assay; assay type: functional, cell-based; conditions: MV4-11, 72 h
[24] = tested on: THP-1; experiment: Antiproliferative activity against human THP-1 cells assessed as cell growth inhibition measured after 72 hrs by SRB assay; assay type: functional, cell-based; conditions: THP-1, 72 h
[25] = tested on: Jurkat; experiment: Antiproliferative activity against human Jurkat cells assessed as cell growth inhibition measured after 72 hrs by SRB assay; assay type: functional, cell-based
[26] = tested on: HCT-116; experiment: Antiproliferative activity against human HCT-116 cells assessed as cell growth inhibition measured after 72 hrs by SRB assay; assay type: functional, cell-based; conditions: HCT-116, 72 h
[27] = tested on: HuTu80; experiment: Antiproliferative activity against human HuTu80 cells assessed as cell growth inhibition measured after 72 hrs by SRB assay; assay type: functional, cell-based; conditions: HuTu80, 72 h
[28] = tested on: RKO; experiment: Antiproliferative activity against human RKO cells assessed as cell growth inhibition measured after 72 hrs by SRB assay; assay type: functional, cell-based
[29] = tested on: HT-29; experiment: Antiproliferative activity against human HT-29 cells assessed as cell growth inhibition measured after 72 hrs by SRB assay; assay type: functional, cell-based; conditions: HT-29, 72 h
[30] = tested on: LNCaP-Clone-FGC; experiment: Antiproliferative activity against human LNCaP-Clone-FGC cells assessed as cell growth inhibition measured after 72 hrs by SRB assay; assay type: functional, cell-based
[31] = tested on: DU-145; experiment: Antiproliferative activity against human DU-145 cells assessed as cell growth inhibition measured after 72 hrs by SRB assay; assay type: functional, cell-based; conditions: DU-145, 72 h
[32] = tested on: CAPAN-1; experiment: Antiproliferative activity against human CAPAN-1 cells assessed as cell growth inhibition measured after 72 hrs by SRB assay; assay type: functional, cell-based; conditions: CAPAN-1, 72 h
[33] = tested on: HCT-116; experiment: Induction of cell cycle arrest in human HCT-116 cells assessed as accumulation of cells at G2/M phase incubated for 24 hrs by PI-staining-based flow cytometry; assay type: functional
[34] = tested on: HCT-116; experiment: Induction of cell cycle arrest in human HCT-116 cells assessed as accumulation of cells at S phase at higher concentration incubated for 24 hrs by PI-staining-based flow cytometry; assay type: functional
[35] = tested on: HCT-116; experiment: Induction of cell cycle arrest in human HCT-116 cells assessed as increase in > 4N cells at higher concentration incubated for 24 hrs by PI-staining-based flow cytometry; assay type: functional
[36] = tested on: HCT-116; experiment: Induction of apoptosis in human HCT-116 cells assessed as increase in cleaved caspase-3 level upto 1 uM incubated for 48 hrs by Western blot analysis; assay type: functional, cell-based
[37] = tested on: HCT-116; experiment: Induction of apoptosis in human HCT-116 cells assessed as increase in cleaved caspase-7 level upto 1 uM incubated for 48 hrs by Western blot analysis; assay type: functional, cell-based
[38] = tested on: HCT-116; experiment: Induction of apoptosis in human HCT-116 cells assessed as increase in cleaved PARP1 level upto 1 uM incubated for 48 hrs by Western blot analysis; assay type: functional, cell-based
[39] = tested on: HCT-116; experiment: Antitumor activity against human HCT-116 cells xenografted in nude mouse assessed as reduction in tumor growth at 130 mg/kg, sc qd for upto 18 days; assay type: functional; conditions: time <= 18 day
[40] = Toxicity in nude mouse xenografted with human HCT-116 cells assessed as effect on body weight at 65 to 130 mg/kg, sc qd for upto 18 days; assay type: organism-based; conditions: in vivo, 432 h, dose 65-130 mg/kg, time < 18 day

Chain of Voltage-gated inwardly rectifying potassium channel KCNH2 (Q12809 whole entry): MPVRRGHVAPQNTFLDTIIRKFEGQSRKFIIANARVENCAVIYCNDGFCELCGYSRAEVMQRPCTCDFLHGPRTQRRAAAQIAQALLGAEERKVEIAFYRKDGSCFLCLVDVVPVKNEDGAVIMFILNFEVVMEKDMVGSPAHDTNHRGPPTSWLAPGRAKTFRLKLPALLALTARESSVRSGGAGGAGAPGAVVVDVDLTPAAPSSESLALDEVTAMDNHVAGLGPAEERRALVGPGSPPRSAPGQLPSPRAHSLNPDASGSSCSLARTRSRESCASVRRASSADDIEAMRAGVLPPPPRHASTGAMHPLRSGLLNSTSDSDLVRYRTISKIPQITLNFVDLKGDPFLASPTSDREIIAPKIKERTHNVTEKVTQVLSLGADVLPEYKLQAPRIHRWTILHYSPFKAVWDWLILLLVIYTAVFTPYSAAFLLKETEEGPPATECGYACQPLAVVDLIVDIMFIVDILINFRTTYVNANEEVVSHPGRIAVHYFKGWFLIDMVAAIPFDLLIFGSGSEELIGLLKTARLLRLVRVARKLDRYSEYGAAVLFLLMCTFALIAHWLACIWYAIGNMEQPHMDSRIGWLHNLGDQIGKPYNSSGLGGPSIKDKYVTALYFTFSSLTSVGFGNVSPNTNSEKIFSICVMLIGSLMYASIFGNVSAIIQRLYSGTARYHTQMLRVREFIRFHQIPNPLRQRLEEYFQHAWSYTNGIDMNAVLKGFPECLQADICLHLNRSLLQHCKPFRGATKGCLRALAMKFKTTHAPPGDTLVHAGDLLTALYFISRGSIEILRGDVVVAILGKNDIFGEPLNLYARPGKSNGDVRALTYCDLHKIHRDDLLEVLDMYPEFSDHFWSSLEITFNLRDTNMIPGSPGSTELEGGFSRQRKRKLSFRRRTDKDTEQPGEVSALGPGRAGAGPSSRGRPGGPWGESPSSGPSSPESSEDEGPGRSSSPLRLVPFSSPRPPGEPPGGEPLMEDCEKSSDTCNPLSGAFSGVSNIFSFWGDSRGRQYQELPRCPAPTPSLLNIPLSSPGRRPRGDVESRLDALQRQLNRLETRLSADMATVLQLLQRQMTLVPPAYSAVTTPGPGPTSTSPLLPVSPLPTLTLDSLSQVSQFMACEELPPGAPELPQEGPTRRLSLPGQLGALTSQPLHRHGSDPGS

COC(=O)N1CCC2(CC1)C[C@H](Nc1ncnc3c1nnn3[C@@H]1C[C@@H](COS(N)(=O)=O)[C@@H](O)C1)c1ccccc12
pIC50 [1]: 9.26 | pIC50 [2]: 7.44 | pIC50 [3]: < 4.40 | half-life [4]: 42.6 min | AUC(0-t) [5]: 0.56 µg·h/mL | AUC(0-inf) [6]: 0.563 µg·h/mL | clearance [7]: 1.78 L/h/kg | MRT inf [8]: 60 min | Vd [9]: 1.78 L/kg | pIC50 [10]: 7.17 | inhibition [11]: Dde | inhibition [12]: Dde | inhibition [13]: Dde | inhibition [14]: Dde | inhibition [15]: Active | inhibition [16]: Active | inhibition [17]: Dde | inhibition [18]: Dde | inhibition [19]: Dde | inhibition [20]: Dde | inhibition [21]: Active | inhibition [22]: Active | pIC50 [23]: 6.97 | pIC50 [24]: 6.45 | pIC50 [25]: 6.32 | pIC50 [26]: 7.47 | pIC50 [27]: 7.40 | pIC50 [28]: 6.54 | pIC50 [29]: 6.39 | pIC50 [30]: 6.58 | pIC50 [31]: 6.32 | pIC50 [32]: 7.00 | Activity [33]: Active | Activity [34]: Active | Activity [35]: Active | Activity [36]: Active | Activity [37]: Active | Activity [38]: Active | T/C [39]: 0.19 | Activity [40]: Non-Toxic
